One compound from US20210246019A1, “PEPTIDE/LIPID-ASSOCIATED NUCLEIC ACIDS (PLANA) FOR NUCLEIC ACID DELIVERY” (priority 2020, published 2021) can be followed below.

The test system of the assay is hCoV-229E. The experiment in a line: microbe, parasite or virus in culture. Particulars: Human coronavirus 229E, MRC5, read-out: cell viability.

Regarding `CCC(CC)COC(=O)[C@H](C)N[P@](=O)(OC[C@H]1O[C@@](C#N)(c2ccc3c(N)ncnn23)[C@H](O)[C@@H]1O)Oc1ccccc1` [remdesivir], the viability at 5 µM is 92%.
